Measured values published in patent publication US20260232767A1, “INTERLEUKIN-23 RECEPTOR ANTAGONIST PEPTIDES FOR USE IN THE TREATMENT OF PSORIASIS” (Janssen Pharmaceutica NV, priority 2023, published 2026).

System: subjects with moderate-to-severe plaque psoriasis
Experiment: Safety, adverse events, Example 2 through Week 56
Assay type: in vivo, human
Settings: through Week 56
Source text: The LTE safety analysis was based on randomized participants in Example who entered the present long-term extension study and received at least one dose of study intervention (including a partial dose) during the study period.

[1] = Placebo → 100 mg QD after crossover

CC(=O)NCCCC[C@@H]1NC(=O)[C@H](Cc2c[nH]c3c(C)cccc23)NC(=O)[C@H]([C@@H](C)O)NC(=O)[C@H](CC(N)=O)NC(=O)[C@@H](NC(C)=O)C(C)(C)SSC(C)(C)[C@@H](C(=O)N[C@@H](Cc2ccc(OCCN)cc2)C(=O)N[C@@H](Cc2ccc3ccccc3c2)C(=O)NC2(C(=O)N[C@@H](CCC(=O)O)C(=O)N[C@@H](CC(N)=O)C(=O)N[C@@H](Cc3cccnc3)C(=O)N(C)CC(N)=O)CCOCC2)NC1=O [IL-23 receptor antagonist peptide, Ac-[Pen]*-N-T-[W(7-Me)]-[Lys(Ac)]-[Pen]*-Phe[4-(2-aminoethoxy)]-[2-Nal]-[THP]-E-N-[3-Pal]-Sarc-NH2 (*[Pen]-[Pen]* formdisulfidebond)]
(9.5%): Subjects with 1 or more Adverse events: Alanine aminotransferase increased (100 mg BID)
(4.5%): Subjects with 1 or more Adverse events: Diarrhea (Combined) | Subjects with 1 or more Serious adverse events (Combined)
(25.6%): Subjects with 1 or more Adverse events: Nasopharyngitis (100 mg QD)
(4.9%): Subjects with 1 or more Adverse events: Bronchitis (25 mg BID) | Subjects with 1 or more Adverse events: Diarrhea (25 mg BID) | Subjects with 1 or more treatment-emergent adverse events leading to discontinuation of study agent (25 mg BID) | Subjects with 1 or more Adverse events: Headache (Combined)
(25.7%): Subjects with 1 or more Adverse events: Nasopharyngitis [1]
(11.9%): Subjects with 1 or more Adverse events: Nasopharyngitis (100 mg BID) | Subjects with 1 or more Adverse events: Upper respiratory tract infection (100 mg BID)
(14.0%): Subjects with 1 or more Adverse events: COVID-19 (25 mg QD) | Subjects with 1 or more Adverse events: COVID-19 (50 mg QD)
(2.4%): Subjects with 1 or more Adverse events: Alanine aminotransferase increased (25 mg BID) | Subjects with 1 or more Adverse events: Aspartate aminotransferase increased (25 mg BID) | Subjects with 1 or more Adverse events: Urinary tract infection (25 mg BID) | Subjects with 1 or more Serious adverse events: Ligament injury (25 mg BID) | Subjects with 1 or more Serious adverse events: Tonsillar hypertrophy (25 mg BID) | Subjects with 1 or more Serious adverse events: Ventricular dysfunction (25 mg BID) | Subjects with 1 or more Adverse events: Diarrhea (100 mg BID) | Subjects with 1 or more Adverse events: Headache (100 mg BID) | Subjects with 1 or more Adverse events: Influenza (100 mg BID) | Subjects with 1 or more Serious adverse events (100 mg BID) | Subjects with 1 or more Serious adverse events: Uterine leiomyoma (100 mg BID) | Subjects with 1 or more treatment-emergent adverse events leading to discontinuation of study agent (100 mg BID)
(16.7%): Subjects with 1 or more Adverse events: COVID-19 (100 mg BID)
(2.9%): Subjects with 1 or more Adverse events: Arthralgia [1] | Subjects with 1 or more Adverse events: Aspartate aminotransferase increased [1] | Subjects with 1 or more Adverse events: Bronchitis [1] | Subjects with 1 or more Adverse events: Diarrhea [1] | Subjects with 1 or more Adverse events: Influenza [1] | Subjects with 1 or more Serious adverse events [1] | Subjects with 1 or more Serious adverse events: Cerebrovascular accident [1]
(30.2%): Subjects with 1 or more Adverse events: Nasopharyngitis (50 mg QD)
(9.7%): Subjects with 1 or more Adverse events: Upper respiratory tract infection (Combined)
(4.0%): Subjects with 1 or more treatment-emergent adverse events leading to discontinuation of study agent (Combined)
(55.8%): Subjects with 1 or more Adverse events (25 mg QD)
(70.4%): Subjects with 1 or more Adverse events (Combined)
(19.8%): Subjects with 1 or more Adverse events: Nasopharyngitis (Combined)
(78.0%): Subjects with 1 or more Adverse events (25 mg BID)
(22.0%): Subjects with 1 or more Adverse events: COVID-19 (25 mg BID)
(3.6%): Subjects with 1 or more Adverse events: Alanine aminotransferase increased (Combined) | Subjects with 1 or more Adverse events: Bronchitis (Combined)
(11.6%): Subjects with 1 or more Adverse events: COVID-19 (100 mg QD) | Subjects with 1 or more Adverse events: Headache (100 mg QD)
(7.0%): Subjects with 1 or more Adverse events: Nasopharyngitis (25 mg QD) | Subjects with 1 or more treatment-emergent adverse events leading to discontinuation of study agent (25 mg QD) | Subjects with 1 or more Adverse events: Upper respiratory tract infection (50 mg QD) | Subjects with 1 or more Serious adverse events (50 mg QD) | Subjects with 1 or more Adverse events: Arthralgia (100 mg QD) | Subjects with 1 or more Adverse events: Cough (100 mg QD) | Subjects with 1 or more Serious adverse events (100 mg QD)
(74.4%): Subjects with 1 or more Adverse events (50 mg QD)
(0.4%): Subjects with 1 or more Serious adverse events: COVID-19 (Combined) | Subjects with 1 or more Serious adverse events: Cerebrovascular accident (Combined) | Subjects with 1 or more Serious adverse events: Coronary artery disease (Combined) | Subjects with 1 or more Serious adverse events: Diverticulitis (Combined) | Subjects with 1 or more Serious adverse events: Foot deformity (Combined) | Subjects with 1 or more Serious adverse events: Infected cyst (Combined) | Subjects with 1 or more Serious adverse events: Intervertebral disc protrusion (Combined) | Subjects with 1 or more Serious adverse events: Ligament injury (Combined) | Subjects with 1 or more Serious adverse events: Non-cardiac chest pain (Combined) | Subjects with 1 or more Serious adverse events: Suicide attempt (Combined) | Subjects with 1 or more Serious adverse events: Tonsillar hypertrophy (Combined) | Subjects with 1 or more Serious adverse events: Uterine leiomyoma (Combined) | Subjects with 1 or more Serious adverse events: Ventricular dysfunction (Combined)
(9.3%): Subjects with 1 or more Adverse events: Bronchitis (50 mg QD) | Subjects with 1 or more Adverse events: Diarrhea (50 mg QD)
(3.2%): Subjects with 1 or more Adverse events: Arthralgia (Combined) | Subjects with 1 or more Adverse events: Cough (Combined) | Subjects with 1 or more Adverse events: Urinary tract infection (Combined)
(2.3%): Subjects with 1 or more Adverse events: Alanine aminotransferase increased (25 mg QD) | Subjects with 1 or more Adverse events: Arthralgia (25 mg QD) | Subjects with 1 or more Adverse events: Aspartate aminotransferase increased (25 mg QD) | Subjects with 1 or more Adverse events: Cough (25 mg QD) | Subjects with 1 or more Adverse events: Alanine aminotransferase increased (50 mg QD) | Subjects with 1 or more Adverse events: Arthralgia (50 mg QD) | Subjects with 1 or more Adverse events: Aspartate aminotransferase increased (50 mg QD) | Subjects with 1 or more Adverse events: Headache (50 mg QD) | Subjects with 1 or more Adverse events: Influenza (50 mg QD) | Subjects with 1 or more Adverse events: Urinary tract infection (50 mg QD) | Subjects with 1 or more Serious adverse events: Coronary artery disease (50 mg QD) | Subjects with 1 or more Serious adverse events: Foot deformity (50 mg QD) | Subjects with 1 or more Serious adverse events: Infected cyst (50 mg QD) | Subjects with 1 or more Serious adverse events: Non-cardiac chest pain (50 mg QD) | Subjects with 1 or more Adverse events: Diarrhea (100 mg QD) | Subjects with 1 or more Adverse events: Influenza (100 mg QD) | Subjects with 1 or more Serious adverse events: COVID-19 (100 mg QD) | Subjects with 1 or more Serious adverse events: Diverticulitis (100 mg QD) | Subjects with 1 or more Serious adverse events: Intervertebral disc protrusion (100 mg QD) | Subjects with 1 or more Serious adverse events: Suicide attempt (100 mg QD)
(5.7%): Subjects with 1 or more Adverse events: Alanine aminotransferase increased [1] | Subjects with 1 or more Adverse events: COVID-19 [1] | Subjects with 1 or more Adverse events: Urinary tract infection [1]
(72.1%): Subjects with 1 or more Adverse events (100 mg QD)
(19.5%): Subjects with 1 or more Adverse events: Nasopharyngitis (25 mg BID)
(7.3%): Subjects with 1 or more Adverse events: Headache (25 mg BID) | Subjects with 1 or more Adverse events: Influenza (25 mg BID) | Subjects with 1 or more Adverse events: Upper respiratory tract infection (25 mg BID) | Subjects with 1 or more Serious adverse events (25 mg BID)
(11.4%): Subjects with 1 or more Adverse events: Upper respiratory tract infection [1]
(2.8%): Subjects with 1 or more Adverse events: Aspartate aminotransferase increased (Combined) | Subjects with 1 or more Adverse events: Influenza (Combined)
(16.3%): Subjects with 1 or more Adverse events: Upper respiratory tract infection (25 mg QD)
(65.7%): Subjects with 1 or more Adverse events [1]
0: Subjects with Mouth ulceration | Subjects with Tendonitis
(4.7%): Subjects with 1 or more Adverse events: Bronchitis (25 mg QD) | Subjects with 1 or more Adverse events: Diarrhea (25 mg QD) | Subjects with 1 or more Adverse events: Headache (25 mg QD) | Subjects with 1 or more Adverse events: Urinary tract infection (25 mg QD) | Subjects with 1 or more Adverse events: Cough (50 mg QD) | Subjects with 1 or more treatment-emergent adverse events leading to discontinuation of study agent (50 mg QD) | Subjects with 1 or more Adverse events: Upper respiratory tract infection (100 mg QD) | Subjects with 1 or more treatment-emergent adverse events leading to discontinuation of study agent (100 mg QD)
(76.2%): Subjects with 1 or more Adverse events (100 mg BID)
(14.2%): Subjects with 1 or more Adverse events: COVID-19 (Combined)
(7.1%): Subjects with 1 or more Adverse events: Aspartate aminotransferase increased (100 mg BID)
(4.8%): Subjects with 1 or more Adverse events: Arthralgia (100 mg BID) | Subjects with 1 or more Adverse events: Cough (100 mg BID) | Subjects with 1 or more Adverse events: Urinary tract infection (100 mg BID)
